Consider 6 compounds from patent US8420673B2, “Fungicidal amides” (E I du Pont de Nemours and Company, priority 2007, dated 2013).

Each structure is given as a SMILES string. Like-named read-outs stand apart in the source and are kept apart here.

Format in all cases: in vivo
Experiment [1] deals with Plasmopara viticola. Nature of the experiment: Test A: grape downy mildew, test suspension sprayed after inoculation, visual disease rating. The following applies: grape seedlings, sprayed to run-off 24 h after inoculation.
In experiment [2] the test system is Phytophthora infestans. Conditions: tomato seedlings, sprayed to run-off the day before inoculation.
Experiment [3] deals with Phytophthora infestans. The following applies: tomato seedlings, sprayed to run-off 17 h after inoculation.
The mark [4] stands for this setting: no asterisk, test concentration not given.

For the compound `Cc1cc(C(F)(F)F)nn1CC(=O)N1CCC(c2nc(CN(C)[C@@H]3CCCc4ccccc43)cs2)CC1` [Compound 1, 1-[4-[4-[[methyl[(1R)-1,2,3,4-tetrahydro-1-naphthalenyl]amino]methyl]-2-thiazolyl]-1-piperidinyl]-2-[5-methyl-3-(trifluoromethyl)-1H-pyrazol-1-yl]ethanone], the “Test A rating (disease control)” value in experiment [1] (setting [4]) amounted to 72%. Further, in experiment [2] (setting [4]), the “Test B rating (disease control)” value is 100%. In addition, in experiment [3] (setting [4]), the “Test C rating (disease control)” value stood at 99%.
The matching figures for `Cc1cc(C(F)(F)F)nn1CC(=O)N1CCC(c2nc(CN[C@@H]3CCCc4ccccc43)cs2)CC1` [Compound 2, 2-[5-methyl-3-(trifluoromethyl)-1H-pyrazol-1-yl]-1-[4-[4-[[[(1R)-1,2,3,4-tetrahydro-1-naphthalenyl]amino]methyl]-2-thiazolyl]-1-piperidinyl]ethanone]: 28%, 100% and 93%.
In the same order, the values of `CC(=O)N(Cc1csc(C2CCN(C(=O)Cn3nc(C(F)(F)F)cc3C)CC2)n1)[C@@H]1CCCc2ccccc21` [Compound 3, N-[[2-[1-[2-[5-methyl-3-(trifluoromethyl)-1H-pyrazol-1-yl]acetyl]-4-piperidinyl]-4-thiazolyl]methyl]-N-[(1R)-1,2,3,4-tetrahydro-1-naphthalenyl]acetamide] are 55%, 85% and 53%.
The matching figures for `Cc1cc(C(F)(F)F)nn1CC(=O)N1CCC(c2nc(CN(C=O)[C@@H]3CCCc4ccccc43)cs2)CC1` [Compound 4, N-[[2-[1-[2-[5-methyl-3-(trifluoromethyl)-1H-pyrazol-1-yl]acetyl]-4-piperidinyl]-4-thiazolyl]methyl]-N-[(1R)-1,2,3,4-tatrahydro-1-naphthalenyl]formamide]: 0%, 87% and 26%.
Take `Cc1cc(C(F)(F)F)nn1CCC(=O)N1CCC(c2nc(C(=O)N(C)[C@@H]3CCCc4ccccc43)cs2)CC1` [Compound 5, N-methyl-2-[1-[3-[5-methyl-3-(trifluoromethyl)-1H-pyrazol-1-yl]-1-oxopropyl]-4-piperidinyl]-N-[(1R)-1,2,3,4-tetrahydro-1-naphthalenyl]-4-thiazolecarboxamide]: the “Test A rating (disease control)” value in experiment [1] (compound tested at 40 ppm) amounted to 17%. Besides, the “Test B rating (disease control)” value in experiment [2] (compound tested at 40 ppm) was 57%. The “Test C rating (disease control)” value in experiment [3] (compound tested at 40 ppm) is 0%.
For the compound `CCOC(=O)C(C(=O)N1CCC(c2nc(C(=O)N(C)C3CCCc4ccccc43)cs2)CC1)n1nc(C(F)(F)F)cc1C` (stereo not drawn) [Compound 6, ethyl 4-[4-[[methyl(1,2,3,4-tetrahydro-1-naphthalenyl)amino]carbonyl]-2-thiazolyl]-α-[5-methyl-3-(trifluoromethyl)-1H-pyrazol-1-yl]-β-oxo-1-piperidinepropanoate], in experiment [1] (compound tested at 40 ppm), the “Test A rating (disease control)” value was determined as 72%. Besides, in experiment [2] (compound tested at 40 ppm), the “Test B rating (disease control)” value is recorded as 17%. In addition, in experiment [3] (compound tested at 40 ppm), the “Test C rating (disease control)” value worked out at 0%.
